In article PMC7503597 (International Journal of Molecular Sciences, 2020) one finds Emax data, which are given here for 1 compound.

The target in this assay is T1, D3R-ELucC (Homo sapiens, UniProt P35462).
T1 construct: gene DRD3
Kind of assay: cell-based. To be noted: HEK-293T, read-out: β-Arrestin2 Recruitment / Emax [%]. Background: Activated receptors often draw arrestin, which recruitment assays turn into a signal.

T1 sequence (P35462 whole entry): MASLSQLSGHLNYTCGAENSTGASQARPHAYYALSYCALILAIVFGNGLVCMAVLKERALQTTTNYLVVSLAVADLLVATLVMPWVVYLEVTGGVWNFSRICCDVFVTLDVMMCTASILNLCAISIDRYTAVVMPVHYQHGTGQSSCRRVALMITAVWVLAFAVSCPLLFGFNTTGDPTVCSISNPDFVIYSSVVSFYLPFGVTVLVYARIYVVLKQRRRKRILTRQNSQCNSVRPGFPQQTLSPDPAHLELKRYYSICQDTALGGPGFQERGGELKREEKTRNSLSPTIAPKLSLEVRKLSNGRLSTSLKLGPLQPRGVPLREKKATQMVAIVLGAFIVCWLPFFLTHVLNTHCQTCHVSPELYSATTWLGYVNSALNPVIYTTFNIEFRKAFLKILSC

Turning to `CCN1CCC[C@H]1CNC(=O)c1cc(S(N)(=O)=O)ccc1OC` [S-(−)-sulpiride], the Emax is -26 ± 8%.
